ChEMBL document CHEMBL2375306, “Antimicrobial peptides containing unnatural amino acid exhibit potent bactericidal activity against ESKAPE pathogens” (Bioorg Med Chem, 2013)
Converted amounts (≈) assume the structure as drawn. Square brackets hold non-standard residues; d marks the D form. Peptide text beside a SMILES is read from it. ξ: configuration not given here. Pro(3ξ,4ξ-(CH2)4) = O=C(O)[C@H]1NCC2CCCCC21; Tic = O=C(O)[C@@H]1Cc2ccccc2CN1; Orn = NCCC[C@H](N)C(=O)O; Dab = NCC[C@H](N)C(=O)O

How the values were obtained:
NHDF [1] = assay: Cytotoxicity against NHDF at 50 ug/ml after 6 hrs by MTT assay; type: cell-based; details: human
Staphylococcus aureus [2] = assay: Antibacterial activity against methicillin-sensitive Staphylococcus aureus UAMS-1 after 24 hrs by broth microdilution method; type: functional; details: UAMS-1, 24 h
NHDF [3] = assay: Cytotoxicity against NHDF at >50 ug/ml after 6 hrs by MTT assay; type: cell-based; details: human
NHDF [4] = assay: Cytotoxicity against NHDF at 50 ug/ml after 6 hrs by LDH assay; type: cell-based; details: human
Klebsiella aerogenes = assay: Antibacterial activity against Enterobacter aerogenes after 24 hrs by broth microdilution method; type: functional
Staphylococcus aureus [5] = assay: Antibacterial activity against community-associated methicillin-resistant Staphylococcus aureus USA300 after 24 hrs by broth microdilution method; type: functional; details: USA300, 24 h
Pseudomonas aeruginosa = assay: Antibacterial activity against Pseudomonas aeruginosa PAO1 after 24 hrs by broth microdilution method; type: functional; details: PAO1, 24 h
Enterococcus faecium = assay: Antibacterial activity against Enterococcus faecium MMC4 after 24 hrs by broth microdilution method; type: functional; details: MMC4, 24 h
Acinetobacter baumannii = assay: Antibacterial activity against Acinetobacter baumannii WRAIR clinical isolate 13 after 24 hrs by broth microdilution method; type: functional; details: WRAIR clinical isolate 13, 24 h
NHDF [6] = assay: Cytotoxicity against NHDF at >50 ug/ml after 6 hrs by LDH assay; type: cell-based; details: human
Klebsiella pneumoniae = assay: Antibacterial activity against Klebsiella pneumoniae BAMS clinical isolate 07-18 after 24 hrs by broth microdilution method; type: functional; details: BAMS clinical isolate 07-18, 24 h

Row | MIC (Staphylococcus aureus [2]) [mg/L] | MIC (Klebsiella aerogenes) [mg/L] | MIC (Pseudomonas aeruginosa) [mg/L] | MIC (Enterococcus faecium) [mg/L] | MIC (Acinetobacter baumannii) [mg/L] | MIC (Klebsiella pneumoniae) [mg/L] | Compound | Activity (NHDF [1]) | MBC (Staphylococcus aureus [2]) [mg/L] | Activity (NHDF [3]) | Activity (NHDF [4]) | MBC (Klebsiella aerogenes) [mg/L] | MIC (Staphylococcus aureus [5]) [mg/L] | MBC (Pseudomonas aeruginosa) [mg/L] | MBC (Enterococcus faecium) [mg/L] | MBC (Acinetobacter baumannii) [mg/L] | Activity (NHDF [6]) | MBC (Klebsiella pneumoniae) [mg/L]
1 | 12.5 (≈ 3.47 µM) | 50 (≈ 13.9 µM) | 50 (≈ 13.9 µM) | 6.25 (≈ 1.74 µM) | 12.5 (≈ 3.47 µM) | 50 (≈ 13.9 µM) | CC(C)C[C@H](NC(=O)[C@@H](N)CCCCN)C(=O)N1Cc2ccccc2C[C@H]1C(=O)N1CC2CCCCC2[C@H]1C(=O)N[C@@H](CCCCN)C(=O)NCC(=O)N1Cc2ccccc2C[C@H]1C(=O)N1CC2CCCCC2[C@H]1C(=O)N[C@@H](Cc1ccccc1)C(=O)NCC(=O)N1Cc2ccccc2C[C@H]1C(=O)N1CC2CCCCC2[C@H]1C(=O)N[C@@H](CCCCN)C(=O)NCC(=O)N1Cc2ccccc2C[C@H]1C(=O)N1CC2CCCCC2[C@H]1C(=O)N[C@@H](Cc1ccccc1)C(=O)NCC(=O)N1Cc2ccccc2C[C@H]1C(=O)N1CC2CCCCC2[C@H]1C(=O)N[C@@H](CCCCN)C(=O)NCC(=O)N1Cc2ccccc2C[C@H]1C(=O)N1CC2CCCCC2[C@H]1C(=O)N[C@@H](CCCCN)C(=O)N[C@@H](CCCCN)C(=O)N[C@@H](CCCCN)C(=O)N[C@@H](CCCCN)C(N)=O (stereo not given in full) (H-KL[Tic][Pro(3ξ,4ξ-(CH2)4)]KG[Tic][Pro(3ξ,4ξ-(CH2)4)]FG[Tic][Pro(3ξ,4ξ-(CH2)4)]KG[Tic][Pro(3ξ,4ξ-(CH2)4)]FG[Tic][Pro(3ξ,4ξ-(CH2)4)]KG[Tic][Pro(3ξ,4ξ-(CH2)4)]KKKK-NH2) | Non-toxic | 50 (≈ 13.9 µM) | Toxic | Non-toxic | 50 (≈ 13.9 µM) | – | 50 (≈ 13.9 µM) | 25 (≈ 6.95 µM) | 25 (≈ 6.95 µM) | Toxic | 50 (≈ 13.9 µM)
2 | 50 (≈ 15.6 µM) | 100 (≈ 31.2 µM) | 100 (≈ 31.2 µM) | 12.5 (≈ 3.91 µM) | 12.5 (≈ 3.91 µM) | 100 (≈ 31.2 µM) | CC(C)C[C@H](NC(=O)[C@@H](N)CCCN)C(=O)N1Cc2ccccc2C[C@H]1C(=O)N1CC2CCCCC2[C@H]1C(=O)N[C@@H](CCCN)C(=O)N1Cc2ccccc2C[C@H]1C(=O)N1CC2CCCCC2[C@H]1C(=O)N[C@@H](Cc1ccccc1)C(=O)N1Cc2ccccc2C[C@H]1C(=O)N1CC2CCCCC2[C@H]1C(=O)N[C@@H](CCCN)C(=O)N1Cc2ccccc2C[C@H]1C(=O)N1CC2CCCCC2[C@H]1C(=O)N[C@@H](Cc1ccccc1)C(=O)N1Cc2ccccc2C[C@H]1C(=O)N1CC2CCCCC2[C@H]1C(=O)N[C@@H](CCCN)C(=O)N1Cc2ccccc2C[C@H]1C(=O)N1CC2CCCCC2[C@H]1C(=O)N[C@@H](CCCN)C(=O)N[C@@H](CCCN)C(=O)N[C@@H](CCCN)C(=O)N[C@@H](CCCN)C(N)=O (stereo not given in full) (H-[Orn]L[Tic][Pro(3ξ,4ξ-(CH2)4)][Orn][Tic][Pro(3ξ,4ξ-(CH2)4)]F[Tic][Pro(3ξ,4ξ-(CH2)4)][Orn][Tic][Pro(3ξ,4ξ-(CH2)4)]F[Tic][Pro(3ξ,4ξ-(CH2)4)][Orn][Tic][Pro(3ξ,4ξ-(CH2)4)][Orn][Orn][Orn][Orn]-NH2) | – | 100 (≈ 31.2 µM) | – | – | > 100 | – | > 100 | 50 (≈ 15.6 µM) | 100 (≈ 31.2 µM) | – | > 100

Row | Compound | MIC (Staphylococcus aureus [2]) [mg/L] | MIC (Klebsiella aerogenes) [mg/L] | MIC (Pseudomonas aeruginosa) [mg/L] | MIC (Enterococcus faecium) [mg/L] | MIC (Acinetobacter baumannii) [mg/L] | MIC (Klebsiella pneumoniae) [mg/L] | Activity (NHDF [1]) | MBC (Staphylococcus aureus [2]) [mg/L] | Activity (NHDF [3]) | Activity (NHDF [4]) | MBC (Klebsiella aerogenes) [mg/L] | MIC (Staphylococcus aureus [5]) [mg/L] | MBC (Pseudomonas aeruginosa) [mg/L] | MBC (Enterococcus faecium) [mg/L] | MBC (Acinetobacter baumannii) [mg/L] | Activity (NHDF [6]) | MBC (Klebsiella pneumoniae) [mg/L]
3 | CC(=O)NCC(=O)N[C@@H](Cc1ccccc1)C(=O)N1Cc2ccccc2C[C@H]1C(=O)N1CC2CCCCC2[C@H]1C(=O)NCC(=O)N[C@@H](CCN)C(=O)N1Cc2ccccc2C[C@H]1C(=O)N1CC2CCCCC2[C@H]1C(=O)NCC(=O)N[C@@H](Cc1ccccc1)C(=O)N1Cc2ccccc2C[C@H]1C(=O)N1CC2CCCCC2[C@H]1C(=O)NCC(=O)N[C@@H](CCN)C(=O)N1Cc2ccccc2C[C@H]1C(=O)N[C@@H](CCN)C(=O)N[C@@H](CCN)C(=O)N[C@@H](CCN)C(=O)N[C@@H](CCN)C(N)=O (stereo not given in full) (Ac-GF[Tic][Pro(3ξ,4ξ-(CH2)4)]G[Dab][Tic][Pro(3ξ,4ξ-(CH2)4)]GF[Tic][Pro(3ξ,4ξ-(CH2)4)]G[Dab][Tic][Dab][Dab][Dab][Dab]-NH2) | 50 (≈ 22 µM) | 25 (≈ 11 µM) | 12.5 (≈ 5.5 µM) | 6.25 (≈ 2.75 µM) | 6.25 (≈ 2.75 µM) | 12.5 (≈ 5.5 µM) | Non-toxic | 50 (≈ 22 µM) | Toxic | Non-toxic | 25 (≈ 11 µM) | 25 (≈ 11 µM) | 25 (≈ 11 µM) | 50 (≈ 22 µM) | 12.5 (≈ 5.5 µM) | Toxic | 12.5 (≈ 5.5 µM)
